Measurements published in patent US8399502B2, “Analogs of indole-3-carbinol and their use as agents against infection” (priority 2008, dated 2013).
≈ marks a conversion by molar mass, not a printed value.

Each compound was assayed on Francisella tularensis (FT; Gram-negative) (assay: microbe, parasite or virus in culture). Details: read-out: MIC FT.
Type: cell-based

| SMILES | MIC |
| --- | --- |
| Clc1ccc2[nH]c3c(OCCCc4nnn[nH]4)c4[nH]c5ccc(Cl)cc5c4cc3c2c1 | 1 µg/mL (≈ 2.22 µM) |
| COc1c2[nH]c3ccc(F)cc3c2c(N2CCCC2)c2c1[nH]c1ccc(F)cc12 | 0.5 µg/mL (≈ 1.28 µM) |
| Nc1nnc(N)n1CCCOc1c2[nH]c3ccc(Cl)cc3c2cc2c1[nH]c1ccc(Cl)cc12 | 1 µg/mL (≈ 2.08 µM) |
| COc1c2[nH]c3ccc(F)cc3c2cc2c1[nH]c1ccc(F)cc12 [drawing 194] | 0.5 µg/mL (≈ 1.55 µM) |
| Clc1ccc2[nH]c3c(OCCCNCc4c[nH]c5ccccc45)c4[nH]c5ccc(Cl)cc5c4cc3c2c1 | 1 µg/mL (≈ 1.9 µM) |
| Clc1ccc2[nH]c3c(OCCCn4cnnc4)c4[nH]c5ccc(Cl)cc5c4cc3c2c1 | 0.5 µg/mL (≈ 1.11 µM) |
| CCN(CC)CCOc1c2[nH]c3ccc(F)cc3c2cc2c1[nH]c1ccc(F)cc12 | 0.5 µg/mL (≈ 1.23 µM) |
| Fc1ccc2[nH]c3c(OCCN4CCCC4)c4[nH]c5ccc(F)cc5c4cc3c2c1 | 0.5 µg/mL (≈ 1.23 µM) |
| Clc1ccc2[nH]c3c(O[C@@H]4CCNC4)c4[nH]c5ccc(Cl)cc5c4cc3c2c1 | ≤ 0.25 µg/mL |
| CC(CN(C)C)Oc1c2[nH]c3ccc(F)cc3c2cc2c1[nH]c1ccc(F)cc12 (stereo not shown) | 0.5 µg/mL (≈ 1.27 µM) |
| Fc1ccc2[nH]c3c(O[C@@H]4CCNC4)c4[nH]c5ccc(F)cc5c4cc3c2c1 [drawing 253] | ≤ 0.25 µg/mL |
| Fc1ccc2[nH]c3c(OCCCNC4=NCCN4)c4[nH]c5ccc(F)cc5c4cc3c2c1 [drawing 234] | 2 µg/mL (≈ 4.61 µM) |
| CC(C)/N=C(/NCCCOc1c2[nH]c3ccc(F)cc3c2cc2c1[nH]c1ccc(F)cc12)NC(C)C | 1 µg/mL (≈ 2.03 µM) |
| NC1CCN(CCOc2c3[nH]c4ccc(Cl)cc4c3cc3c2[nH]c2ccc(Cl)cc23)CC1 | 0.5 µg/mL (≈ 1.07 µM) |
| Clc1ccc2[nH]c3c(OCCCn4cncn4)c4[nH]c5ccc(Cl)cc5c4cc3c2c1 | 0.25 µg/mL (≈ 0.555 µM) |
| NC1CCN(CCCOc2c3[nH]c4ccc(F)cc4c3cc3c2[nH]c2ccc(F)cc23)CC1 | 0.125 to 0.5 µg/mL (≈ 0.279 to 1.11 µM) |
| N[C@H]1CCN(CCCOc2c3[nH]c4ccc(F)cc4c3cc3c2[nH]c2ccc(F)cc23)C1 | 0.5 µg/mL (≈ 1.15 µM) |

Each compound was assayed on Bacillus anthracis (BA; Gram-positive) (assay: microbe, parasite or virus in culture). Details: read-out: MIC BA.
Type: cell-based

| SMILES | MIC |
| --- | --- |
| Clc1ccc2[nH]c3c(OCCCc4nnn[nH]4)c4[nH]c5ccc(Cl)cc5c4cc3c2c1 | 0.5 µg/mL (≈ 1.11 µM) |
| COc1c2[nH]c3ccc(F)cc3c2c(N2CCCC2)c2c1[nH]c1ccc(F)cc12 | 1 µg/mL (≈ 2.55 µM) |
| Nc1nnc(N)n1CCCOc1c2[nH]c3ccc(Cl)cc3c2cc2c1[nH]c1ccc(Cl)cc12 | 1 µg/mL (≈ 2.08 µM) |
| COc1c2[nH]c3ccc(F)cc3c2cc2c1[nH]c1ccc(F)cc12 [drawing 194] | 1 µg/mL (≈ 3.1 µM) |
| Clc1ccc2[nH]c3c(OCCCNCc4c[nH]c5ccccc45)c4[nH]c5ccc(Cl)cc5c4cc3c2c1 | 1 µg/mL (≈ 1.9 µM) |
| Clc1ccc2[nH]c3c(OCCCn4cnnc4)c4[nH]c5ccc(Cl)cc5c4cc3c2c1 | 0.25 µg/mL (≈ 0.555 µM) |
| CCN(CC)CCOc1c2[nH]c3ccc(F)cc3c2cc2c1[nH]c1ccc(F)cc12 | 1 µg/mL (≈ 2.45 µM) |
| Fc1ccc2[nH]c3c(OCCN4CCCC4)c4[nH]c5ccc(F)cc5c4cc3c2c1 | 1 µg/mL (≈ 2.47 µM) |
| Clc1ccc2[nH]c3c(O[C@@H]4CCNC4)c4[nH]c5ccc(Cl)cc5c4cc3c2c1 | ≤ 0.25 µg/mL |
| CC(CN(C)C)Oc1c2[nH]c3ccc(F)cc3c2cc2c1[nH]c1ccc(F)cc12 (stereo not shown) | 1 µg/mL (≈ 2.54 µM) |
| Fc1ccc2[nH]c3c(O[C@@H]4CCNC4)c4[nH]c5ccc(F)cc5c4cc3c2c1 [drawing 253] | < 0.25 µg/mL |
| Fc1ccc2[nH]c3c(OCCCNC4=NCCN4)c4[nH]c5ccc(F)cc5c4cc3c2c1 [drawing 234] | 1 µg/mL (≈ 2.31 µM) |
| CC(C)/N=C(/NCCCOc1c2[nH]c3ccc(F)cc3c2cc2c1[nH]c1ccc(F)cc12)NC(C)C | 0.5 µg/mL (≈ 1.02 µM) |
| NC1CCN(CCOc2c3[nH]c4ccc(Cl)cc4c3cc3c2[nH]c2ccc(Cl)cc23)CC1 | 2 µg/mL (≈ 4.28 µM) |
| Clc1ccc2[nH]c3c(OCCCn4cncn4)c4[nH]c5ccc(Cl)cc5c4cc3c2c1 | 0.5 µg/mL (≈ 1.11 µM) |
| NC1CCN(CCCOc2c3[nH]c4ccc(F)cc4c3cc3c2[nH]c2ccc(F)cc23)CC1 | 0.5 µg/mL (≈ 1.11 µM) |
| N[C@H]1CCN(CCCOc2c3[nH]c4ccc(F)cc4c3cc3c2[nH]c2ccc(F)cc23)C1 | 1 µg/mL (≈ 2.3 µM) |

The compounds below were run on Yersinia pestis (YP; Gram-negative) (assay: microbe, parasite or virus in culture). Details: read-out: MIC YP.
Type: cell-based

| SMILES | MIC |
| --- | --- |
| Clc1ccc2[nH]c3c(OCCCc4nnn[nH]4)c4[nH]c5ccc(Cl)cc5c4cc3c2c1 | > 8 µg/mL |
| COc1c2[nH]c3ccc(F)cc3c2c(N2CCCC2)c2c1[nH]c1ccc(F)cc12 | > 16 µg/mL |
| Nc1nnc(N)n1CCCOc1c2[nH]c3ccc(Cl)cc3c2cc2c1[nH]c1ccc(Cl)cc12 | 4 µg/mL (≈ 8.33 µM) |
| COc1c2[nH]c3ccc(F)cc3c2cc2c1[nH]c1ccc(F)cc12 [drawing 194] | > 16 µg/mL |
| Clc1ccc2[nH]c3c(OCCCNCc4c[nH]c5ccccc45)c4[nH]c5ccc(Cl)cc5c4cc3c2c1 | 2 µg/mL (≈ 3.79 µM) |
| CCN(CC)CCOc1c2[nH]c3ccc(F)cc3c2cc2c1[nH]c1ccc(F)cc12 | > 16 µg/mL |
| Fc1ccc2[nH]c3c(OCCN4CCCC4)c4[nH]c5ccc(F)cc5c4cc3c2c1 | 8 µg/mL (≈ 19.7 µM) |
| Clc1ccc2[nH]c3c(O[C@@H]4CCNC4)c4[nH]c5ccc(Cl)cc5c4cc3c2c1 | 1 µg/mL (≈ 2.44 µM) |
| CC(CN(C)C)Oc1c2[nH]c3ccc(F)cc3c2cc2c1[nH]c1ccc(F)cc12 (stereo not shown) | 16 µg/mL (≈ 40.7 µM) |
| Fc1ccc2[nH]c3c(O[C@@H]4CCNC4)c4[nH]c5ccc(F)cc5c4cc3c2c1 [drawing 253] | 1 µg/mL (≈ 2.65 µM) |
| Fc1ccc2[nH]c3c(OCCCNC4=NCCN4)c4[nH]c5ccc(F)cc5c4cc3c2c1 [drawing 234] | 8 µg/mL (≈ 18.5 µM) |
| CC(C)/N=C(/NCCCOc1c2[nH]c3ccc(F)cc3c2cc2c1[nH]c1ccc(F)cc12)NC(C)C | 4 µg/mL (≈ 8.14 µM) |
| NC1CCN(CCOc2c3[nH]c4ccc(Cl)cc4c3cc3c2[nH]c2ccc(Cl)cc23)CC1 | 16 µg/mL (≈ 34.2 µM) |
| NC1CCN(CCCOc2c3[nH]c4ccc(F)cc4c3cc3c2[nH]c2ccc(F)cc23)CC1 | 2 µg/mL (≈ 4.46 µM) |
| N[C@H]1CCN(CCCOc2c3[nH]c4ccc(F)cc4c3cc3c2[nH]c2ccc(F)cc23)C1 | 4 µg/mL (≈ 9.21 µM) |

What follows are compounds tested on Brucella abortus (BAB; Gram-negative) (assay: microbe, parasite or virus in culture). Details: read-out: MIC BAB.
Type: cell-based

| SMILES | MIC |
| --- | --- |
| Clc1ccc2[nH]c3c(OCCCc4nnn[nH]4)c4[nH]c5ccc(Cl)cc5c4cc3c2c1 | 1 µg/mL (≈ 2.22 µM) |
| COc1c2[nH]c3ccc(F)cc3c2c(N2CCCC2)c2c1[nH]c1ccc(F)cc12 | 2 µg/mL (≈ 5.11 µM) |
| Nc1nnc(N)n1CCCOc1c2[nH]c3ccc(Cl)cc3c2cc2c1[nH]c1ccc(Cl)cc12 | 1 µg/mL (≈ 2.08 µM) |
| COc1c2[nH]c3ccc(F)cc3c2cc2c1[nH]c1ccc(F)cc12 [drawing 194] | 1 µg/mL (≈ 3.1 µM) |
| Clc1ccc2[nH]c3c(OCCCNCc4c[nH]c5ccccc45)c4[nH]c5ccc(Cl)cc5c4cc3c2c1 | 0.5 µg/mL (≈ 0.948 µM) |
| CCN(CC)CCOc1c2[nH]c3ccc(F)cc3c2cc2c1[nH]c1ccc(F)cc12 | 1 µg/mL (≈ 2.45 µM) |
| Fc1ccc2[nH]c3c(OCCN4CCCC4)c4[nH]c5ccc(F)cc5c4cc3c2c1 | 1 µg/mL (≈ 2.47 µM) |
| Clc1ccc2[nH]c3c(O[C@@H]4CCNC4)c4[nH]c5ccc(Cl)cc5c4cc3c2c1 | ≤ 0.25 µg/mL |
| CC(CN(C)C)Oc1c2[nH]c3ccc(F)cc3c2cc2c1[nH]c1ccc(F)cc12 (stereo not shown) | 0.5 µg/mL (≈ 1.27 µM) |
| Fc1ccc2[nH]c3c(O[C@@H]4CCNC4)c4[nH]c5ccc(F)cc5c4cc3c2c1 [drawing 253] | < 0.25 µg/mL |
| Fc1ccc2[nH]c3c(OCCCNC4=NCCN4)c4[nH]c5ccc(F)cc5c4cc3c2c1 [drawing 234] | 2 µg/mL (≈ 4.61 µM) |
| CC(C)/N=C(/NCCCOc1c2[nH]c3ccc(F)cc3c2cc2c1[nH]c1ccc(F)cc12)NC(C)C | 1 µg/mL (≈ 2.03 µM) |
| NC1CCN(CCOc2c3[nH]c4ccc(Cl)cc4c3cc3c2[nH]c2ccc(Cl)cc23)CC1 | 1 µg/mL (≈ 2.14 µM) |
| NC1CCN(CCCOc2c3[nH]c4ccc(F)cc4c3cc3c2[nH]c2ccc(F)cc23)CC1 | 0.5 µg/mL (≈ 1.11 µM) |
| N[C@H]1CCN(CCCOc2c3[nH]c4ccc(F)cc4c3cc3c2[nH]c2ccc(F)cc23)C1 | 1 µg/mL (≈ 2.3 µM) |

These compounds were tested on Burkholderia mallei (BM; Gram-negative) (assay: microbe, parasite or virus in culture). Details: read-out: MIC BM.
Type: cell-based

| SMILES | MIC |
| --- | --- |
| Clc1ccc2[nH]c3c(OCCCc4nnn[nH]4)c4[nH]c5ccc(Cl)cc5c4cc3c2c1 | > 8 µg/mL |
| COc1c2[nH]c3ccc(F)cc3c2c(N2CCCC2)c2c1[nH]c1ccc(F)cc12 | > 16 µg/mL |
| Nc1nnc(N)n1CCCOc1c2[nH]c3ccc(Cl)cc3c2cc2c1[nH]c1ccc(Cl)cc12 | > 8 µg/mL |
| COc1c2[nH]c3ccc(F)cc3c2cc2c1[nH]c1ccc(F)cc12 [drawing 194] | > 16 µg/mL |
| Clc1ccc2[nH]c3c(OCCCNCc4c[nH]c5ccccc45)c4[nH]c5ccc(Cl)cc5c4cc3c2c1 | > 8 µg/mL |
| Fc1ccc2[nH]c3c(OCCN4CCCC4)c4[nH]c5ccc(F)cc5c4cc3c2c1 | > 16 µg/mL |
| Clc1ccc2[nH]c3c(O[C@@H]4CCNC4)c4[nH]c5ccc(Cl)cc5c4cc3c2c1 | 2 µg/mL (≈ 4.87 µM) |
| Fc1ccc2[nH]c3c(O[C@@H]4CCNC4)c4[nH]c5ccc(F)cc5c4cc3c2c1 [drawing 253] | 2 µg/mL (≈ 5.3 µM) |
| Fc1ccc2[nH]c3c(OCCCNC4=NCCN4)c4[nH]c5ccc(F)cc5c4cc3c2c1 [drawing 234] | 8 µg/mL (≈ 18.5 µM) |

Each compound was assayed on Burkholderia pseudomallei (BP; Gram-negative) (assay: microbe, parasite or virus in culture). Details: read-out: MIC BP.
Type: cell-based

| SMILES | MIC |
| --- | --- |
| Clc1ccc2[nH]c3c(OCCCc4nnn[nH]4)c4[nH]c5ccc(Cl)cc5c4cc3c2c1 | > 8 µg/mL |
| COc1c2[nH]c3ccc(F)cc3c2c(N2CCCC2)c2c1[nH]c1ccc(F)cc12 | > 16 µg/mL |
| Nc1nnc(N)n1CCCOc1c2[nH]c3ccc(Cl)cc3c2cc2c1[nH]c1ccc(Cl)cc12 | > 8 µg/mL |
| COc1c2[nH]c3ccc(F)cc3c2cc2c1[nH]c1ccc(F)cc12 [drawing 194] | > 16 µg/mL |
| Clc1ccc2[nH]c3c(OCCCNCc4c[nH]c5ccccc45)c4[nH]c5ccc(Cl)cc5c4cc3c2c1 | > 8 µg/mL |
| Fc1ccc2[nH]c3c(OCCN4CCCC4)c4[nH]c5ccc(F)cc5c4cc3c2c1 | > 16 µg/mL |
| Clc1ccc2[nH]c3c(O[C@@H]4CCNC4)c4[nH]c5ccc(Cl)cc5c4cc3c2c1 | > 8 µg/mL |
| Fc1ccc2[nH]c3c(O[C@@H]4CCNC4)c4[nH]c5ccc(F)cc5c4cc3c2c1 [drawing 253] | 4 µg/mL (≈ 10.6 µM) |
| Fc1ccc2[nH]c3c(OCCCNC4=NCCN4)c4[nH]c5ccc(F)cc5c4cc3c2c1 [drawing 234] | > 8 µg/mL |
